Assay results as given in patent US20190328665A1, “LIPOSOME COMPOSITIONS ENCAPSULATING MODIFIED CYCLODEXTRIN COMPLEXES AND USES THEREOF” (priority 2014, published 2019).
Converted amounts (≈) assume the structure as drawn. One block for each compound: values may come before it.

Tests used:
[1] = Remote loading of cyclodextrin-encapsulated dyes/drugs into liposomes; assay type: physicochemical
Method: (§1) Equimolar quantities of the drug (0.1 mmol; 30-50 mg) and appropriate cyclodextrin ([…]; 110-185 mg) were dissolved separately in methanol (nearly saturated; ˜1-2 mL) and deionized water (˜10-20 mg/mL), respectively. The methanolic solution of the drug was then added dropwise into the cyclodextrin solution with agitation ensuring a uniform suspension. This suspension was then shaken at 55° C. for 36-48 hours using an Eppendorf Thermomixer R. The solution was filtered to remove particulate matter and flash frozen in a dry ice/acetone bath followed by lyophilization. The lyophilized complex was stored at −20° C. until further use.
The lyophilized powder complex described above was pulverized and incubated with appropriate liposomal solutions (30-40 mg drug equivalent in 6 mL liposomal solution, to achieve loading ratios of 5-8 mg/mL concentrations) for 1 hour at 65° C. They were centrifuged at 1,000×g for 3 minutes to remove particulate matter and then dialyzed against 300 mM sucrose or commercial PBS solution (pH 7.4) overnight to remove material that had not been loaded into the liposomes. The size distributions of the liposomal formulations were characterized using the Malvem ZS90 instrument described above.
The liposomal solution was dialyzed against PBS overnight.
Organic dyes (coumarins) were used to determine whether the modified cyclodextrins could encapsulate and transport hydrophobic compounds across the liposome bilayer. […] It was determined that the most efficient and convenient way to encapsulate the coumarins was by freeze drying (Cao et al. (2005) Drug Dev. Industr. Pharm. 31:747-756; Badr-Eldin et al. (2008) Eur. J. Pharm. Biopharm. 70:819-827). […] Following overnight dialysis to remove unincorporated complexes, the liposomes were subsequently disrupted with methanol and the coumarin fluorescence measured. As shown by fluorescence spectroscopy, all cyclodextrin-dye complexes were incorporated into liposomes with high efficiency (>95%; FIG. 5). […]

[2] = mouse, in vivo, iv
Method: Coumarin 334 was used as a drug surrogate to assess biodistribution and pharmacokinetics of cyclodextrin-encapsulated liposomes. […] Female athymic nu/nu mice bearing HCT116 subcutaneous xenografts were used in the study following a modified protocol described in Macdiarmid et al. (2007) Cancer Cell 11:431-445. When the tumor volumes reached 400-600 mm^3, 12 mice were treated intravenouslys (i.v.) with 200 μL cyclodextrin-encapsulated, liposomal (CYCL-)coumarin 334 (0.5 mg/mL). Posttreatment, four mice were euthanized at time points 2, 24, and 48 hours and tumor, spleen, liver, kidneys, heart, and lungs were excised and weighed. Blood was also collected, and plasma was separated and stored at 4° C. Except for plasma, each frozen tissue was homogenized and sonicated in 0.9% saline [3×volume (μL) of tissue mass (mg)]. […] The samples were centrifuged (6,000×g for 10 minutes) and the fluorescence in the supematants was measured by a CytoFluor II fluorescence multiwall plate reader (Applied Biosystems) using excitation 485 nm/emission 530 nm. […]
To establish biodistribution and pharmacokinetics of the CYCL liposomes, liposomes loaded with coumarin 334 encapsulated in cyclodextrin VI were used to treat HCT116-bearing mice by intravenous (i.v.) injection. Samples from major tissues harvested at 2, 24, and 48 hours post-treatment were analyzed for their fluorescence.

[3] = Phase II / Phase 2 trials; cited from earlier work
[4] = physchem; assay type: physicochemical; conditions: for solubility: water
Method: as §1
Organic dyes (coumarins) were used to determine whether the modified cyclodextrins could encapsulate and transport hydrophobic compounds across the liposome bilayer. Coumarins are very hydrophobic and a dramatic improvement in aqueous solubility was observed after they were encapsulated into 6′-mono-ethylenediamino-6′-deoxy-cyclodextrin (compound III). It was determined that the most efficient and convenient way to encapsulate the coumarins was by freeze drying (Cao et al. (2005) Drug Dev. Industr. Pharm. 31:747-756; Badr-Eldin et al. (2008) Eur. J. Pharm. Biopharm. 70:819-827). […] Once dissolved, the cyclodextrin-coumarin complexes were incubated with pre-formed liposomes exactly as described above, using a pH gradient to drive the compounds across the bilayer. Following overnight dialysis to remove unincorporated complexes, the liposomes were subsequently disrupted with methanol and the coumarin fluorescence measured. As shown by fluorescence spectroscopy, all cyclodextrin-dye complexes were incorporated into liposomes with high efficiency (>95%; FIG. 5). […] The incorporation of coumarin dyes into liposomes was easily discerned by the naked eye, as the coumarin-cyclodextrin liposomes were bright yellow, whereas control liposomes (made without cyclodextrins, for example) were colorless (FIGS. 5A-5C).

[5] = in vivo; conditions: female, athymic nu/nu, mouse, iv
[6] = test system: HCT116 xenografts; experiment: HCT116 subcutaneous xenograft tumor growth; assay type: in vivo, nude mice
Method: (§2) Tumor volume was recorded every 48 hours.

[7] = Passive loading of BI-2536 into liposomes; assay type: physicochemical
Method: Method 1: Encapsulation of BI-2536 in the lipid layer. Hydrogenated egg phosphatidylcholine (Avanti Polar Lipids), cholesterol, and DSPE-PEG2000 (Avanti Polar Lipids) (molar ratios 50:45:5) were dissolved in chloroform (20 mL). Ten milligrams of BI-2536 (in 1 mL chloroform) was added and the solvent was evaporated to generate a thin film. One milliliter of PBS (pH 7.4) was added to hydrate the lipid layer, and the mixture was shaken at 50° C. for 2 hours as described above. The vesicle suspension was sonicated for 30 min and then extruded successively through 0.4-, 0.2-, and 0.1-μm polycarbonate membranes (Whatman; Nuclepore Track-Etched Membrane) at 50° C. to obtain the final liposomes with low polydispersity at the desired size. The liposomes were then dialyzed in PBS overnight to remove unentrapped drug. The average size and polydispersity index were then measured by dynamic light-scattering experiments on a Malvem Z90. Drug content was calculated by rupturing the liposomes with an equal volume of methanol and measuring the UV-vis absorbance on a NanoDrop 1000.
Method 2: Hydration of the lipid layer with an aqueous formulation of BI-2536. Hydrogenated egg phosphatidylcholine (Avanti Polar Lipids), cholesterol, and DSPE-PEG2000 (Avanti Polar Lipids) (molar ratios 50:45:5) were dissolved in chloroform (20 mL), and the solvent was evaporated in vacuo to generate a thin film. One milliliter of aqueous BI-2536 (4 mg; pH 5.5) was added to hydrate the lipid layer, and the mixture was shaken at 50° C. for 2 hours as described above. The vesicle suspension was sonicated for 30 minutes and then extruded successively through 0.4-, 0.2-, and 0.1-μm polycarbonate membranes (Whatman; Nuclepore Track-Etched Membrane) at 50° C. to obtain the final liposomes with low polydispersity at the desired size. The liposomes were then dialyzed against PBS overnight to remove unentrapped drug. The average size and polydispersity index were then measured by dynamic light-scattering experiments on a Malvem Z90. Drug content was calculated by rupturing the liposomes with an equal volume of methanol and measuring the UV-vis absorbance on a NanoDrop 1000.
The cyclodextrin-based loading method was also compared with the most common approaches to entrapping hydrophobic and insoluble agents in liposomes. First, direct entrapment of BI-2536 in the lipid bilayer was attempted. BI-2536 was co-evaporated with hydrogenated egg phosphatidylcholine-cholesterol-1,2-distearoyl-sn-glycero-3-phosphoethanolamine-N-[methoxy(polyethylene glycol)-2000 (DSPE-PEG 2000) to prepare a thin film, which was subsequently hydrated with 1 mL PBS and extruded through a 100-nm polycarbonate membrane at 700 psi to prepare small, unilamellar vesicles (average particle size (Zavg) 126 nm; PDI 0.09). Upon overnight dialysis against PBS to remove unentrapped drug, the drug-containing liposomes rapidly swelled (Zavg 539 nm; PDI 0.49) and released nearly 90% of the entrapped drug. Second, the lipid film was hydrated with an aqueous formulation of BI-2536 (passive loading). Hydration of the lipid film, followed by extrusion and dialyses, led to stable liposomes. However, the encapsulation efficiency was <10%, 20-fold less than achievable with the modified cyclodextrins described herein.

[8] = mouse, in vivo, iv, 100 mg/kg
[9] = test system: HCT116 cells with genetically inactivated TP53 alleles; experiment: Xenograft of HCT116 cells with genetically inactivated TP53 alleles; parameters: species or system nude mice; conditions: mouse, in vivo
Method: as §2

[10] = test system: RKO xenografts; experiment: RKO xenograft tumor growth; assay type: in vivo, nude mice; conditions: free drug 150 mg/kg
Method: as §2
With the free drug, severe acute toxicity was evident. In previous studies, the free drug was administered by oral gavage, because its solubility is not sufficient for intravenous dosing.

[11] = direct entrapment in lipid bilayer, after extrusion
[12] = direct entrapment in lipid bilayer, after overnight dialysis against PBS

Compound: CC[C@@H]1C(=O)N(C)c2cnc(Nc3ccc(C(=O)NC4CCN(C)CC4)cc3OC)nc2N1C1CCCC1 [BI-2536]
toxicity in clinical trials [3]: unacceptable toxicity (grade 4 neutropenia) at sub-therapeutic doses | effect of aminated cyclodextrins V and VI on aqueous solubility [4]: dramatically improved | solubility [4]: 500 µg/mL (≈ 958 µM) | MTD [5]: 100 mg/kg | tumor regressions ([6]; mouse, in vivo): not with free drug | slowing of tumor growth ([6]; two i.v. doses of 100 mg/kg): ~30% | PDI [7, 11]: 0.09 | average particle size (Zavg) [7, 11]: 126 nm | PDI [7, 12]: 0.49 | average particle size (Zavg) [7, 12]: 539 nm | entrapped drug released ([7]; direct entrapment in lipid bilayer, overnight dialysis against PBS): ~90% | encapsulation efficiency relative to modified cyclodextrins (fold less) ([7]; passive loading): 20 fold | encapsulation efficiency ([7]; passive loading: lipid film hydrated with aqueous BI-2536): < 10% | acute toxicity / survival [8]: somewhat lethargic immediately after drug administration, but survived | tumor regressions [9]: not with free drug

Compound: O=C(NOC[C@H](O)CO)c1ccc(F)c(F)c1Nc1ccc(I)cc1F [PD-0325901]
toxicity in clinical trials [3]: retinal vein occlusion (RVO) | increase in solubility after encapsulation into cyclodextrins [4]: ~40 fold | solubility [4]: 100 µg/mL (≈ 207 µM) | slowing of tumor growth [10]: ~5%

Continued, in another order:

liposome loading of PD-0325901 among cyclodextrins VI, VII, VIII, IX ([1]; acidic or basic liposomes): best liposome loading
Compound: 6′,6′,6′,6′,6′,6′,6′-heptakis-succinyl-β-cyclodextrin [IX]

persistence in blood and tumor [2]: persisted in the blood and tumor
Compound: CC(=O)c1cc2cc3c4c(c2oc1=O)CCCN4CCC3 [coumarin 334]
tissue clearance [2]: cleared from most of the tissues examined

loading into liposomes in the absence of cyclodextrins ([1]; citrate liposomes, identical conditions): poorly incorporated into liposomes
Compound: CCOC(=O)c1cc2cc3c4c(c2oc1=O)CCCN4CCC3 [coumarin 314]
loading efficiency when encapsulated in unionizable native β-cyclodextrin ([1]; citrate liposomes): only marginally improved the loading efficiency
